Source: ChEMBL document CHEMBL6109068, “Design, synthesis, and biological evaluation of 5'-deoxy (N)-methanocarbanucleoside derivatives as A3 adenosine receptor ligands” (Bioorg Med Chem Lett, 2025)

What was measured:
Adenosine receptor A3 = target: T1, Adenosine receptor A3 (Homo sapiens, UniProt P0DMS8); assay: Displacement of [3H]-NECA from human A3AR stably expressed in HeLa cell membrane; assay type: cell membranes
T1 sequence (P0DMS8 whole entry): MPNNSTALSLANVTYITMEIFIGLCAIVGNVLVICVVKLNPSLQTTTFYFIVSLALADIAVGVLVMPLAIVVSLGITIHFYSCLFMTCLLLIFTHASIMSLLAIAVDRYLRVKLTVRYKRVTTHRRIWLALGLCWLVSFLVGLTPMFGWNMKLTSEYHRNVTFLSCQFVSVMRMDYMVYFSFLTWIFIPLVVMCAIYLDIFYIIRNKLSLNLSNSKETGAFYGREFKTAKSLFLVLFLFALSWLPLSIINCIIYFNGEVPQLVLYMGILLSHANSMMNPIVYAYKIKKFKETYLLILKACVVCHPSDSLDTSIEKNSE

[1] = target: T2, Adenosine receptor A3 (Homo sapiens) (UniProt P0DMS8); assay: Displacement of [3H]-NECA from human A3AR stably expressed in HeLa cell membrane at 10 uM relative to control; assay type: cell membranes
T2 sequence (whole entry): T1 sequence (P0DMS8 whole entry)

Row | Ki (Adenosine receptor A3) [nM] | inhibition [1] [%] | Compound
1 | 70.3 |  | C[C@]12C[C@@H]1[C@@H](n1cnc3c(NCc4cccc(Cl)c4)ncnc31)[C@H](O)[C@@H]2O
2 |  | 89 | C[C@]12C[C@@H]1[C@@H](n1cnc3c(N)nc(Cl)nc31)[C@H](O)[C@@H]2O
3 | 124 |  | C[C@]12C[C@@H]1[C@@H](n1cnc3c(NCc4cccc(F)c4)nc(Cl)nc31)[C@H](O)[C@@H]2O
